Source: patent publication US20230000816A1, “SODIUM-GLUCOSE LINKED TRANSPORTER INHIBITORS FOR THE MANAGEMENT OF CHRONIC KIDNEY DISEASE, HYPERTENSION, AND HEART FAILURE IN COMPANION ANIMALS” (INCREVET, INC., priority 2019, published 2023)
Converted amounts (≈) assume the structure as drawn.

Columns and labels:
cats = test: Urinary glucose excretion in cats given bexagliflozin tablets; format: in vivo, cat
purpose-bred beagles = test: 24 h urine collection (glucose excretion, volume, electrolytes) in dogs; format: in vivo, dog; settings: for 24 h urine Cl^− / 24 h urine K^+ / 24 h urine Na^+ / 24 h urine Volume: mean ± SD, n=4
Method: (§1) Groups of four purpose-bred beagles per cohort were administered ascending doses of bexagliflozin in the form of a proline co-crystal consisting of two moles of L-proline for every mole of bexagliflozin. The co-crystal was dissolved in 10% PEG400 and administered by oral gavage to dogs that had been fasted overnight. Control dogs were administered 10% PEG400. One hour after dosing, glucose solution (2 g kg^−1, 5 ml kg^−1) was administered by gavage. Serum glucose concentrations were quantitated by an automated clinical chemistry analyzer for samples collected before dosing, before glucose challenge, and 15, 30, 60, and 120 min after glucose challenge. Urine was collected from 0 to 4 h, 4 to 8 h and 8 to 24 h after dosing for electrolyte analyses (Na^+, K^+, Cl^− and Ca^2+) and glucose measurement. Whole blood samples of approximately 500 μL were collected from the cephalic vein 0, 0.25, 0.5, 1, 2, 4, 8, 12 and 24 h after dosing for pharmacokinetic analysis.
Urine output increased in the treatment group, consistent with an osmotic diuresis or with a role for the inhibited transporters in water reuptake in the proximal tubule.

Sprague-Dawley rats = test: PPAR-γ agonist (pioglitazone)-mediated fluid retention / plasma expansion model, 7 days, drugs in drinking water; format: in vivo, rat
Source text: It has been recognized in human clinical practice that an undesirable side effect of PPAR-γ agonists of the thiazolidinedione class is fluid retention and edema, which limits their use in patients with congestive heart failure. The mechanism of action of the thiazolidinediones is believed to be through stimulation of expression of the epithelial sodium channel (ENaC) in the kidney, resulting in an increased uptake of sodium ions from the distal tubule. Sodium retention and the associated expansion of extracellular fluid volume are characteristic features of congestive heart failure in multiple species. […] The sodium channel blocker amiloride was delivered in drinking water to a third group of rats as a comparator. Plasma expansion was measured by hematocrit. […] Food weight was recorded to measure consumption over the course of the experiment. […] Full bottles were pre-weighed and the weights recorded to allow consumption to be measured over the course of the experiment. On days 1 and 7, rats were warmed using a heating pad and lightly anesthetized using isoflurane. Using a sterile scalpel blade, a small tail nick was made on the distal one third of the tail. Blood was collected in a heparinized microcapillary tube sealed with putty at one end and stored on ice until centrifugation (5000 rpm, 5 min). Plasma volume was determined using a microhematocrit capillary tube reader card. On day 7, rats, food and water bottles were again weighed and recorded and hematocrits were determined using blood collected by a tail nick.

in vivo = settings: dog; for Tmax / half-life / AUC(0-inf) / AUC(0-t) / CL/F / Cmax / Vd/F: beagle, po
Method: as §1

Solubility = format: physicochemical
cats with diabetes = test: Owner and veterinarian assessments of vitality and weight in diabetic cats; format: in vivo, cat
Source text: Assessments by both owners and veterinarians of correlative measures of cat vitality were also collected over the course of various studies. Some of the relevant measures for this analysis are the subjective impressions of cat musculature, solicited from both owners and veterinarians, and owner views of cat overall activity as well as leaping ability. The rating instrument was a 4-point scale with 0=excellent, 1=good, 2=fair and 3=poor.

feline SGLT1 = test: Inhibition of feline SGLT1
[1] = rats, day 1 to day 7, mean ± SEM
[2] = rats, pioglitazone diet, mean ± SEM
[3] = rats, relative to day 1, mean ± SEM

## OC[C@H]1O[C@@H](c2ccc(Cl)c(Cc3ccc(OCCOC4CC4)cc3)c2)[C@H](O)[C@@H](O)[C@@H]1O [Bexagliflozin, (2S,3R,4R,5 S,6R)-2-(4-chloro-3-(4-(2-cyclopropoxyethoxy)benzyl)phenyl)-6-(hydroxymethyl)tetrahydro-2H-pyran-3,4,5-triol]
cats; cats, dose 200 μg kg^−1, based on results in purpose-bred cats
  % of the maximum pharmacodynamic effect: 28%
cats; cats, dose 400 μg kg^−1
  % of the maximum pharmacodynamic effect: 44%
cats; cats, dose 800 μg kg^−1
  % of the maximum pharmacodynamic effect: 61%
cats; cats, dose 1600 μg kg^−1
  % of the maximum pharmacodynamic effect: 76%
cats; cats, dose 3200 μg kg^−1
  % of the maximum pharmacodynamic effect: 86%
cats; cats, dose 6400 μg kg^−1
  % of the maximum pharmacodynamic effect: 93%
cats; cats, dose 12800 μg kg^−1
  % of the maximum pharmacodynamic effect: 96%
cats; cats, dose 25600 μg kg^−1
  % of the maximum pharmacodynamic effect: 98%
cats; cats, tablets of varying strengths, simple logistic model
  ED50 for urinary glucose excretion: approximately 0.5 mg kg^−1
cats; healthy cats
  Emax for urinary glucose excretion: 2.21 g of glucose per kg of body mass
purpose-bred beagles; dogs, 0.02 mg kg^−1 oral
  24 h urine Cl^−: 307.4 ± 87.7 mg
  24 h urine K^+: 426.2 ± 62.1 mg
  24 h urine Na^+: 178.7 ± 16.7 mg
  24 h urine Volume: 118.0 ± 30.8 mL
purpose-bred beagles; dogs, 0.067 mg kg^−1 oral
  24 h urine Cl^−: 403.4 ± 111.4 mg
  24 h urine K^+: 476.8 ± 96.5 mg
  24 h urine Na^+: 220.9 ± 53.9 mg
  24 h urine Volume: 153.1 ± 44.5 mL
purpose-bred beagles; dogs, 0.20 mg kg^−1 oral
  24 h urine Cl^−: 526.5 ± 127.8 mg
  24 h urine K^+: 558.8 ± 118.2 mg
  24 h urine Na^+: 275.7 ± 69.5 mg
  24 h urine Volume: 214.1 ± 53.5 mL
purpose-bred beagles; dogs, 0.67 mg kg^−1 oral
  24 h urine Cl^−: 573.9 ± 166.5 mg
  24 h urine K^+: 587.7 ± 113.5 mg
  24 h urine Na^+: 300.2 ± 66.4 mg
  24 h urine Volume: 225.0 ± 66.9 mL
purpose-bred beagles; dogs, 2.0 mg kg^−1 oral
  24 h urine Cl^−: 595.8 ± 80.6 mg
  24 h urine K^+: 599.7 ± 93.5 mg
  24 h urine Na^+: 313.1 ± 35.1 mg
  24 h urine Volume: 247.7 ± 35.2 mL
purpose-bred beagles; dogs, approximately 1 mg kg^−1 once daily
  % of the maximum pharmacological effect: approximately 90%
purpose-bred beagles; dogs, average mass 5.84 kg
  maximum urinary glucose excretion per body mass: 4.23 g glucose per kg of body mass
purpose-bred beagles; dogs, dose 50 μg kg^−1, based on results in beagle dogs
  % of the maximum pharmacodynamic effect: 30%
purpose-bred beagles; dogs, dose 100 μg kg^−1
  % of the maximum pharmacodynamic effect: 46%
purpose-bred beagles; dogs, dose 200 μg kg^−1
  % of the maximum pharmacodynamic effect: 63%
purpose-bred beagles; dogs, dose 400 μg kg^−1
  % of the maximum pharmacodynamic effect: 77%
purpose-bred beagles; dogs, dose 800 μg kg^−1
  % of the maximum pharmacodynamic effect: 87%
purpose-bred beagles; dogs, dose 1600 μg kg^−1
  % of the maximum pharmacodynamic effect: 93%
purpose-bred beagles; dogs, dose 3200 μg kg^−1
  % of the maximum pharmacodynamic effect: 96%
purpose-bred beagles; dogs, eighth value, no matching dose printed
  % of the maximum pharmacodynamic effect: 98%
purpose-bred beagles; dogs, simple logistic model fit
  Emax for urinary glucose excretion: 24.69 g of glucose in 24 h
purpose-bred beagles; dogs, simple logistic model fit, doses 0.02 to 2.0 mg kg^−1
  ED50 for 24 h urinary glucose excretion: 0.116 mg/kg
purpose-bred beagles; urinary glucose excretion ED50, dogs vs cats
  potency by ED50 in dogs relative to cats: approximately 4 times
Sprague-Dawley rats; rats after 7 days pioglitazone diet, group mean ± SEM
  Plasma volume, Day 7: 54.7 ± 0.6 % of blood volume
Sprague-Dawley rats; rats on 0.03% pioglitazone diet, by hematocrit, group mean ± SEM
  Plasma volume, Day 1: 52.9 ± 0.5 % of blood volume
Sprague-Dawley rats; rats, 7 days
  Effect on pioglitazone-mediated plasma expansion (conclusion): substantially attenuates pioglitazone-mediated plasma expansion
Sprague-Dawley rats; [1]
  Body Weight (%), Δ (percent mass gain): 4.8 ± 1.3 %
  Body Weight (g), Δ: 17.5 ± 4.7 g
Sprague-Dawley rats; rats, day 1 to day 7, mean ± SEM, listed as bexagliflozin
  Body Weight (%), Δ (percent mass gain): 4.8%
Sprague-Dawley rats; rats, pioglitazone diet, group mean ± SEM
  Plasma volume, Δ (day 1 to day 7): 1.8 ± 0.8 % of blood volume
Sprague-Dawley rats; [2]
  Body Weight (g), Day 1: 371.7 ± 5.0 ^ g
  Body Weight (g), Day 7: 389.2 ± 5.7 ^†† g
Sprague-Dawley rats; [3]
  Body Weight (%), Day 1: 100 ± 0 ^ %
  Body Weight (%), Day 7: 104.8 ± 1.3 ^†† %
In vivo
  Tmax: ~0.5 h
  half-life: 1.67 to 5.23 h
  dose proportionality of Cmax and AUC: roughly dose proportional
In vivo; 0.02 mg/kg
  AUC(0-inf): 45.3 ± 7.9 ng·h/mL
  AUC(0-t): 35.6 ± 5.2 ng·h/mL
  CL/F: 7.6 mL/min/kg
  Cmax: 16.3 ± 2.7 ng/mL
  Tmax: 0.5 h
  Vd/F: 1.08 ± 0.128 L/kg
  half-life: 1.67 ± 0.26 h
In vivo; 0.067 mg/kg
  AUC(0-inf): 257 ± 62 ng·h/mL
  AUC(0-t): 240 ± 55 ng·h/mL
  CL/F: 4.53 mL/min/kg
  Cmax: 72.9 ± 11 ng/mL
  Tmax: 0.5 h
  Vd/F: 1.06 ± 0.067 L/kg
  half-life: 2.81 ± 0.61 h
In vivo; 0.2 mg/kg
  AUC(0-inf): 769 ± 95 ng·h/mL
  AUC(0-t): 725 ± 80 ng·h/mL
  CL/F: 4.42 mL/min/kg
  Cmax: 233 ± 26 ng/mL
  Tmax: 0.25 h
  Vd/F: 1.12 ± 0.08 L/kg
  half-life: 2.95 ± 0.28 h
In vivo; 0.67 mg/kg
  AUC(0-inf): 2670 ± 131 ng·h/mL
  AUC(0-t): 2600 ± 104 ng·h/mL
  CL/F: 4.2 mL/min/kg
  Cmax: 801 ± 46 ng/mL
  Tmax: 0.5 h
  Vd/F: 1.89 ± 0.398 L/kg
  half-life: 5.23 ± 1.23 h
In vivo; 2 mg/kg
  AUC(0-inf): 8700 ± 1470 ng·h/mL
  AUC(0-t): 8600 ± 1520 ng·h/mL
  CL/F: 3.95 mL/min/kg
  Cmax: 2200 ± 539 ng/mL
  Tmax: 0.5 h
  Vd/F: 1.37 ± 0.601 L/kg
  half-life: 3.89 ± 0.88 h
Solubility
  solubility in ethanol, propylene glycol and PEGs relative to water: more soluble
Solubility; water at 25° C.
  solubility: ~500 µg/mL (≈ 1080 µM)
Cats with diabetes; 4-point scale
  owner assessment of activity: more active
  owner assessment of leaping ability: better leaping ability
Cats with diabetes; 4-point scale, statistically significant
  veterinarian and owner assessments of musculature: musculature of study cats had improved
Cats with diabetes; by visit, highly significant
  mean cat weight: mean cat weight increased
Feline SGLT1
  potency for feline SGLT1 (in words): high potency
